Data from the supplement of paper PMC10307832.

Compound: C[C@]1(c2nc3c(C(N)=O)cccc3[nH]2)CCCN1 [Veliparib] + COc1cc2c(Oc3ccc(NC(=O)C4(C(=O)Nc5ccc(F)cc5)CC4)cc3F)ccnc2cc1OCCCN1CCOCC1 [Foretinib] (partner 0.25 µM)
Experiment: relative viability (nuclei count vs DMSO), 5 days (fraction); higher = more cells survive
Details: first compound 0.02 µM
How it was run: (§1)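 Relative viability was taken as the ratio of nuclei in treated wells to nuclei in vehicle wells. Lung cancer cell lines in 1536-well plates received compounds by pin tool one day after seeding, either one drug alone or a fixed anchor-drug dose plus five library-drug doses (not always all listed) in √10 steps. Nuclei were counted on 4× images after 5 days of treatment, and values are medians of duplicate plates.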

Cell Line	relative viability
PC-14	0.965
LXF-289	0.986
NCI-H1651	0.793
COR-L23	0.958
HCC-827	1.08
RERF-LC-KJ	0.881
NCI-H3122	1
BEN	0.413
UMC-11	1.29
LCLC-97TM1	0.875
NCI-H838	1.09
NCI-H1793	0.652
NCI-H2228	0.794
LOU-NH91	0.9
NCI-H1666	1.01
ChaGo-K-1	0.874
NCI-H1993	0.674
NCI-H647	1.35
NCI-H2126	1.19
NCI-H1755	0.947
PC-3 [JPC-3]	1.01
NCI-H2087	1.04
NCI-H441	0.905
HOP-62	1.17
NCI-H2170	0.977
NCI-H2347	0.977
HARA	0.898

Same assay, conditions: first compound 0.06325 µM

Cell Line	relative viability
PC-14	0.939
LXF-289	0.956
LC-2-ad	0.894
NCI-H1651	0.74
COR-L23	0.987
HCC-827	1.01
RERF-LC-KJ	0.807
NCI-H3122	0.926
BEN	0.482
UMC-11	0.959
LCLC-97TM1	0.863
NCI-H2085	0.787
A-427	0.936
NCI-H838	0.987
NCI-H1793	0.608
NCI-H2228	0.731

Cell Line	relative viability
LOU-NH91	0.889
NCI-H1666	0.96
ChaGo-K-1	0.873
NCI-H1993	0.7
NCI-H647	1.15
NCI-H2126	1.2
NCI-H1755	0.915
PC-3 [JPC-3]	1.06
NCI-H2087	1.04
NCI-H441	0.738
HOP-62	0.983
NCI-H2170	1
NCI-H2347	0.545
HARA	1.06
NCI-H1355	0.879

Same assay, conditions: first compound 0.2 µM

Cell Line	relative viability
PC-14	0.999
LXF-289	0.957
LC-2-ad	0.903
NCI-H1651	0.762
COR-L23	0.956
HCC-827	0.984
RERF-LC-KJ	0.879
NCI-H3122	0.912
BEN	0.724
UMC-11	0.998
LCLC-97TM1	0.862
NCI-H2085	0.909
A-427	0.991
NCI-H838	1.04
NCI-H1793	0.814
201T	1.2

Cell Line	relative viability
NCI-H2228	0.845
LOU-NH91	0.977
NCI-H1666	0.997
ChaGo-K-1	0.845
NCI-H1993	0.789
NCI-H647	1.29
NCI-H2126	1.26
NCI-H1755	0.935
PC-3 [JPC-3]	0.968
NCI-H2087	0.999
NCI-H441	0.992
HOP-62	0.99
NCI-H2170	0.963
NCI-H2347	0.763
HARA	0.866
NCI-H1355	0.965

Same assay, conditions: first compound 0.6325 µM

Cell Line	relative viability
PC-14	0.922
LXF-289	0.984
LC-2-ad	0.837
NCI-H1651	0.724
COR-L23	0.962
HCC-827	1.03
RERF-LC-KJ	0.888
NCI-H3122	0.943
BEN	0.656
UMC-11	0.948
LCLC-97TM1	0.939
NCI-H2085	0.647
A-427	0.981
NCI-H838	0.967
NCI-H1793	0.747
201T	1.03

Cell Line	relative viability
NCI-H2228	0.737
LOU-NH91	0.924
NCI-H1666	0.895
ChaGo-K-1	0.784
NCI-H1993	0.828
NCI-H647	1.15
NCI-H2126	1.31
NCI-H1755	0.893
PC-3 [JPC-3]	0.975
NCI-H2087	1.16
NCI-H441	0.877
HOP-62	1.13
NCI-H2170	0.942
NCI-H2347	0.802
HARA	0.851
NCI-H1355	0.932

Same assay, conditions: first compound 2 µM

Cell Line	relative viability
PC-14	0.923
LXF-289	0.962
LC-2-ad	0.939
NCI-H1651	0.692
COR-L23	0.866
HCC-827	1.02
RERF-LC-KJ	0.889
NCI-H3122	0.966
BEN	0.569
UMC-11	1.02
LCLC-97TM1	0.989
NCI-H2085	1.15
A-427	1.11
NCI-H838	1.06
NCI-H1793	0.794
201T	1.14

Cell Line	relative viability
NCI-H2228	0.957
LOU-NH91	0.97
NCI-H1666	0.964
ChaGo-K-1	0.923
NCI-H1993	0.79
NCI-H647	0.977
NCI-H2126	1.1
NCI-H1755	0.91
PC-3 [JPC-3]	0.983
NCI-H2087	1.08
NCI-H441	0.948
HOP-62	1.22
NCI-H2170	1.03
NCI-H2347	0.844
HARA	0.828
NCI-H1355	0.982

Compound: COC1=CC=C(C=C1)CN2C=CC3=C2C=C(C=C3)C(=O)NO + CC1(C)CCC(c2ccc(Cl)cc2)=C(CN2CCN(c3ccc(C(=O)NS(=O)(=O)c4ccc(N[C@H](CCN5CCOCC5)CSc5ccccc5)c(S(=O)(=O)C(F)(F)F)c4)cc3)CC2)C1 [Navitoclax] (partner 0.5 µM)
Experiment: as above
Details: first compound 0.08 µM
How it was run: as §1

Cell Line	relative viability
PC-14	0.869
